From patent US7579353B2, “Pyridinone derivatives against malaria” (Glaxo Group Limited, priority 2005, dated 2009)

system: Plasmodium falciparum; assay: In vitro anti-malarial activity against Plasmodium falciparum, IC50 assay / [3H]-hypoxanthine incorporation assay; assay type: cell-based; details: Erythrocyte, parasitized red blood cells, 48 hours
Procedure: In Vitro Anti-malarial Activity Against Plasmodium falciparum
IC50 Assay/[^3H]-Hypoxanthine Assay
Plasmodium falciparum strains.
The culture medium comprised RPMI 1640 with 25 mM HEPES, sodium bicarbonate and glutamine (GIBCO™ cat. ref.: 52400), supplemented with 10% of pooled human sera AB (Irvine Scientific, cat. ref.: 5009) and HT supplement (0.15 mM hypoxanthine and 24 μM thymidine), (GIBCO™ cat. ref.: 41065). Human sera were decomplemented 30 min. at 56° C., aliquoted and stored frozen at −20° C. until use in this culture medium.
Red blood cells O+ stock suspensions were prepared from whole blood bags coming from incomplete blood donation, provided by the Spanish Red Cross (<25 days after sampling). This “whole blood” was aliquoted and stored at 4° C.
To prepare red blood cells for the assay, the whole blood was centrifuged and washed 3 times with RPMI without serum. The upper phase, containing white blood cells was removed. The washed red blood cells were kept as a 50% suspension in complete medium. The prepared cells were stored at 4° C. and were employed in the assay at any time up to 4 days after preparation.
Test compounds were dissolved at 2 mg/ml in 100% DMSO on the day of the assay. If necessary, complete dissolution was achieved by gentle heating (the mixture was heated at a temperature <37° C.) and sonication (sonication bath).
For IC50 determinations, 10 serial 2-fold dilutions were prepared in complete medium in the presence of a constant amount of DMSO.
Plasmodium falciparum strains were maintained in complete medium at an hematocrit of 5% in continuous culture using a method adapted from Trager and Jensen (1, 2).
The parasitemia was calculated by counting the percentage of parasitized erythrocytes by optical microscopy. Thin films of blood were made every day from each culture flask, fixed with methanol and stained for 10 min. in Giemsa (Merck, cat ref.: 1.09204) at 10% in buffered water pH 7.2. The glass slides were observed and counted with an optical microscope (Nikon, Eclipse E200) equipped with a 100× immersion oil objective.
The culture was maintained at an hematocrit of 5%, with a daily change of medium and was diluted when parasitemia had reached about 5%.
[^3H] Hypoxanthine incorporation assay was conducted using a method adapted from Desjardins et al. (3). The assays were performed in 96 wells flat bottom microplates.
1. Serial dilutions of the test compounds (50 μl of a 5× solution/well) were deposited in duplicate. Compounds of the invention were tested in this assay. Chloroquine and Atovaquone were used as control compounds for each assay.
3. [^3H]-Hypoxanthine (Amersham Biosciences, cat. ref.: TRK74) was added extemporaneously to the inoculum suspension at a concentration of 1 μCi/ml (equating to […]). 200 μl of the resulting suspension was distributed into each well (other than the control well H12 described below) leading to a final volume of 250 μl per well, at 2% of hematocrit and 0.5% of parasitemia/well.
4. In each plate, 2 columns were reserved for control wells: • Column 11: Positive control wells: PRBCs with 0.2% DMSO—(i) to determine DMSO solvent effect on parasite growth (at a final concentration of 0.2%) and (ii) to compare with cultures treated with test compounds. • Column 12 (comprising wells A12-H12): • A12-D12—Background value wells: Uninfected RBCs—blank control to obtain the background reading from RBCs without parasites. • E12-G12—Solvent effect wells: PRBCs without DMSO—to determine DMSO solvent effect on PRBCs by comparing these wells with column 11 wells. • H12-Non-radioactive well: PRBCs with cold hypoxanthine—(i) to carry out a thin blood film to determine parasitemia value after incubation by microscopy and (ii) to ensure that the parasites have grown properly during the assay. (200 μl of inoculum suspension was prepared as described above (Items 2 and 3) but with non-tritiated hypoxanthine instead of [3H]-hypoxanthine, then added to this well to a final volume of 250 μl). […]

IC50, < 0.125 µg/mL:
Cc1[nH]c(C)c(-c2ccc(-c3ccc(OC(F)(F)F)cc3)nc2)c(=O)c1Br [Example 15, 5-Bromo-2,6-dimethyl-6′-{4-[(trifluoromethyl)oxy]phenyl}-3,3′-bipyridin-4(1H)-one]
Cc1[nH]c(C)c(-c2ccc(-c3ccc(OC(F)(F)F)cc3)nc2)c(=O)c1Cl [Example 27, 5-Chloro-2,6-dimethyl-6′-{4-[(trifluoromethyl)oxy]phenyl}-3,3′-bipyridin-4(1H)-one]
Cc1[nH]c(C)c(-c2ccc(-c3cccc(OC(F)(F)F)c3)nc2)c(=O)c1Cl [Example 28, 5-Chloro-2,6-dimethyl-6′-{3-[(trifluoromethyl)oxy]phenyl}-3,3′-bipyridin-4(1H)-one]
Cc1[nH]c(C)c(-c2ccc(-c3ccccc3OC(F)(F)F)nc2)c(=O)c1Cl [Example 29, 5-Chloro-2,6-dimethyl-6′-{2-[(trifluoromethyl)oxy]phenyl}-3,3′-bipyridin-4(1H)-one]
Cc1[nH]c(C)c(-c2ccc(-c3ccc(C(F)(F)F)cc3)nc2)c(=O)c1Cl [Example 30, 5-Chloro-2,6-dimethyl-6′-{4-[trifluoromethyl]phenyl}-3,3′-bipyridin-4(1H)-one]
Cc1[nH]c(C)c(-c2ccc(-c3cccc(C(F)(F)F)c3)nc2)c(=O)c1Cl [Example 31, 5-Chloro-2,6-dimethyl-6′-{3-[trifluoromethyl]phenyl}-3,3′-bipyridin-4(1H)-one]
Cc1[nH]c(C)c(-c2ccc(-c3ccccc3C(F)(F)F)nc2)c(=O)c1Cl [Example 32, 5-Chloro-2,6-dimethyl-6′-{2-[trifluoromethyl]phenyl}-3,3′-bipyridin-4(1H)-one]
Cc1[nH]c(C)c(-c2ccc(-c3ccc(Cl)cc3)nc2)c(=O)c1Cl [Example 33, 5-Chloro-6′-(4-chlorophenyl)-2,6-dimethyl-3,3′-bipyridin-4(1H)-one]
Cc1[nH]c(C)c(-c2ccc(-c3cccc(Cl)c3)nc2)c(=O)c1Cl [Example 34, 5-Chloro-6′-(3-chlorophenyl)-2,6-dimethyl-3,3′-bipyridin-4(1H)-one]
Cc1[nH]c(C)c(-c2ccc(-c3ccccc3Cl)nc2)c(=O)c1Cl [Example 35, 5-Chloro-6′-(2-chlorophenyl)-2,6-dimethyl-3,3′-bipyridin-4(1H)-one]
Cc1[nH]c(C)c(-c2ccc(-c3ccc(OC(F)(F)F)cc3)nc2)c(=O)c1Cl.Cl [Example 38, 5-Chloro-2,6-dimethyl-6′-{4-[(trifluoromethyl)oxy]phenyl}-3,3′-bipyridin-4(1H)-one]
CCCCc1ccc(-c2ccc(-c3c(C)[nH]c(C)c(Br)c3=O)cn2)cc1.Cl [Example 39, 5-Bromo-6′-(4-n-butylphenyl)-2,6-dimethyl-3,3′-bipyridin-4(1H)-one]
Cc1[nH]c(C)c(-c2ccc(C#Cc3ccc(C(F)(F)F)cc3)nc2)c(=O)c1Br [Example 40, 5-Bromo-2,6-dimethyl-6′-{[4-(trifluoromethyl)phenyl]ethynyl}-3,3′-bipyridin-4(1H)-one]
Cc1[nH]c(C)c(-c2ccc(C#Cc3ccc(C(F)(F)F)cc3)nc2)c(=O)c1Cl [Example 41, 5-Chloro-2,6-dimethyl-6′-{[4-(trifluoromethyl)phenyl]ethynyl}-3,3′-bipyridin-4(1H)-one]
Cc1[nH]c(C)c(-c2ccc(CCc3cccc(C(F)(F)F)c3)nc2)c(=O)c1Br [Example 43, 5-Bromo-2,6-dimethyl-6′-{2-[3-(trifluoromethyl)phenyl]ethyl}-3,3′-bipyridin-4(1H)-one]
Cc1[nH]c(C)c(-c2ccc(CCc3ccc(F)cc3F)nc2)c(=O)c1Cl [Example 46, 5-Chloro-6′-{2-[2,4-difluorophenyl]ethyl}-2,6-dimethyl-3,3′-bipyridin-4(1H)-one]
CCCCCCCc1ccc(-c2c(C)[nH]c(C)c(Cl)c2=O)cn1 [Example 47, 5-Chloro-6′-(n-heptyl)-2,6-dimethyl-3,3′-bipyridin-4(1H)-one]
Cc1[nH]c(C)c(-c2ccc(CCc3ccc(C(F)(F)F)cc3)cn2)c(=O)c1Cl [Example 52, 5′-Chloro-2′,6′-dimethyl-5-{2-[4-(trifluoromethyl)phenyl]ethyl}-2,3′-bipyridin-4′(1′H)-one]
Cc1[nH]c(C)c(-c2ccc(-c3ccc4c(c3)OCO4)nc2)c(=O)c1Cl [Example 54]
Cc1[nH]c(C)c(-c2ccc(-c3ccc(C(F)(F)F)cc3Cl)nc2)c(=O)c1Cl [Example 55, 5-chloro-6′-[2-chloro-4-(trifluoromethyl)phenyl]-2,6-dimethyl-3,3′-bipyridin-4(1H)-one]
Cc1[nH]c(C)c(-c2ccc(-c3ccc(OCC(F)(F)F)cc3)nc2)c(=O)c1Cl [Example 62, 5-Chloro-2,6-dimethyl-6′-{4-[2,2,2-trifluoroethoxy]phenyl}-3,3′-bipyridin-4(1H)-one]
Cc1[nH]c(C)c(-c2ccc(-c3ccc(C(F)F)cc3)nc2)c(=O)c1Cl [Example 63, 5-Chloro-2,6-dimethyl-6′-{4-[difluoromethyl]phenyl}-3,3′-bipyridin-4(1H)-one]
Cc1[nH]c(C)c(-c2cnc(-c3ccc(C(F)(F)F)cc3)nc2)c(=O)c1Cl [Example 64, 3-Chloro-2,6-dimethyl-5-(5-(2-(4-trifluoromethylphenyl))pyrimidinyl)pyridin-4(1H)-one]
Cc1[nH]c(C)c(-c2ccc(-c3ccc(N(C)C)c(Br)c3)nc2)c(=O)c1Br [Example 71, 5-Bromo-6′-[3-bromo-4-(dimethylamino)phenyl]-2,6-dimethyl-3,3′-bipyridin-4(1H)one]
